Measured values published in patent US10233165B2, “Cyclopropylamine compounds as histone demethylase inhibitors” (IEO—Instituto Europeo di Oncologia S.r.l., priority 2014, dated 2019).
Structures can show the parent of a compound that is named as a salt. Where two headings read alike, the source gives them in different places.

Assays:
CD14 mRNA in THP-1 cells [1] = test: THP-1 target modulation, CD14 mRNA by quantitative RT-PCR; format: cell-based, human; conditions: 0.1 μM inhibitor, 5 days, normalized against TBP mRNA
Protocol: (§1) For this scope THP-1 cells (ACC 16: DSMZ Leibniz Institute DSMZ German collection of Microorganism and cell culture) were plated at cellular density of 50.000 cells/mL and were incubated with the inhibitor at a fixed concentration of 0.1 μM for 5 days. Then, the cells were recovered and mRNA extracted to follow mRNA levels of the macrophage-specific genes CD14. mRNA expression was measured by quantitative RT-PCR (Fast SYBR Green Master mix, Applied Biosystems Foster City, Calif.) using specific primers and normalized against TBP mRNA. […] Primers used in this study were: […]

human THP-1 cells = test: THP-1 methylcellulose assay, colony formation; format: cell-based; conditions: 500 nM inhibitor, 13 days, versus vehicle; for inhibition at 0.5 µM: Homo sapiens, THP-1, 312 h
Protocol: The KDM1A inhibitors were tested for their anti-clonogenic potential on human THP-1 cells (ACC 16: DSMZ Leibniz Institute DSMZ German collection of Microorganism and cell culture).
(§2) THP-1 cells were plated at a density of 250 cells per plate and cultured with the inhibitors at a fixed dose of 500 nM in MethoCult™ H4435 Enriched medium (StemCell Technologies, Vancouver, BC) for 13 days according to the manufacturer instructions. Then, the colony forming potential was scored by direct visualization using an inverted microscope and the percentage of inhibition over the vehicle was assessed. In addition, the cells were harvested and compounds-induced maturation was monitored by changes in the mRNA levels of macrophage-specific genes (CD14) as reported above.

CD14 mRNA in THP-1 cells [2] = test: THP-1 methylcellulose assay, CD14 mRNA in harvested cells; format: cell-based, human; conditions: THP-1 cells harvested from methylcellulose, 500 nM inhibitor, 13 days
Protocol: as §1, §2

[3] = test system: Human leukemia MV4-11 cells; test: Cell growth, CellTiter-Fluor viability assay; format: cell-based; conditions: 48 h incubation, read-out: IC50 [μM] cell growth inhibitory assay
Description: CellTiter-Flor® (Promega) is a nonlytic, single-reagent-addition fluorescence assay that measures the relative number of living cells in a culture population after experimental manipulation. The CellTiter-Fluor™ Cell Viability Assay measures the conserved and constitutive protease activity within live cells and therefore acts as a marker for cell viability.
Human leukemia MV4-11 cells, (obtained from the Deutsche Sammlung von Mikroorganismen and Zellkulturen, ACC 102) in exponential growth, were incubated for 48 h with different concentrations of the inhibitors (e.g. from 0 to 100 μM). After 48 h a volume of CellTiterFluor® Reagent equal to the volume of cell culture medium was added. The content was mixed and incubates for at least 90 min at 37° C. degree to obtain a stable signal. The fluorescence was recorded using an excitation wavelength of 360 nm and an emission at 535 nm. The IC50 was calculated using GraphPad Software.

Human recombinant MAO A = molecular target: T1, Human recombinant MAO A (Homo sapiens, UniProt P21397); test: Bioluminescent-coupled assay for monoamine oxidases (MAO-Glo), MAO-A; format: biochemical; conditions: for IC50 (MAO-A)/ IC50 (LSD1): ratio, 15 min preincubation of compound with enzyme
T1 construct: made in house; host or cells: Pichia pastoris
T1 sequence (P21397 1-527): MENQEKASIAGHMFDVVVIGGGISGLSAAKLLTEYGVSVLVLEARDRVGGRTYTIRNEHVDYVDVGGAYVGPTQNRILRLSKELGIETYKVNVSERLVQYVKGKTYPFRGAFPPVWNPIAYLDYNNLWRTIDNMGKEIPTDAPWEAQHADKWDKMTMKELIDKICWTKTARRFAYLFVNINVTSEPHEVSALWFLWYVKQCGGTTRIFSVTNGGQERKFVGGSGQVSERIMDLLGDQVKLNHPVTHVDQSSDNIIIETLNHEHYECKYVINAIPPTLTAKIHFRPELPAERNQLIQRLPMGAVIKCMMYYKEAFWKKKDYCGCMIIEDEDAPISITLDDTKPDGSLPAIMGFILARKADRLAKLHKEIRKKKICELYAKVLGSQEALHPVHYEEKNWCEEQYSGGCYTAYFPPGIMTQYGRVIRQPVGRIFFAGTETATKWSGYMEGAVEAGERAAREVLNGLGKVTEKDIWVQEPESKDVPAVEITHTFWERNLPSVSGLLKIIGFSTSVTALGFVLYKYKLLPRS
Protocol: The MAO-Glo Assay from Promega (cat. V1402, Promega, Madison, Wis.) was used to measure the effect of inhibitors on MAO-A and MAO-B activity.
Human recombinant MAO A and MAO B were expressed in Pichia pastoris and purified as published (Binda C. et al. Proc. Natl. Acad. Sci. USA, 2003, 9750-9755). The assay was performed at RT in 50 μL (25 μL reaction solution+25 μL detection reagent) in 96 well half area white plates (cat. 3693, Corning, Corning, N.Y.). Luminescence was measured after 20 min incubation in the dark using a microplate reader (Infinite F200, Tecan Group, Switzerland) with an integration time of 0.25 s per well.
50 nM MAO-A or 125 nM MAO-B were incubated with five different inhibitor concentrations (from 0.004 μM to 100 μM) for 15 min at RT in Promega MAO Buffer or Promega MAO-B Buffer (MAO-Glo Assay kit, catalogue number V1402, Promega, Madison, Wis.). […] After 30 min of incubation the reaction was stopped with the Promega detection reagent. The experiments were carried out in duplicate. IC50 was calculated using GraphPad Prism version 4.0 (GraphPad Software, San Diego, Calif.).

[4] = molecular target: T2, human recombinant KDM1A (LSD1)/CoRest complex (Homo sapiens, UniProt O60341); test: Assay of enzyme inhibition of KDM1A (LSD1), Amplex UltraRed/peroxidase; format: biochemical; conditions: result in words
T2 construct: made in house; host or cells: E. coli
Protocol: The complex of human recombinant KDM1A (LSD1)/CoRest protein was produced in E. coli as separate proteins and co-purified following previously reported procedures (Forneris F. et al. Trends Biochem. Sci. 2008, 33, 181-189; Forneris F. et al. J. Biol. Chem. 2007, 282, 20070-20074). The experiments were performed using a mono-methylated H3-K4 peptide containing 21 amino acids (custom synthesis done by Thermo Scientific) as substrate and in 50 mM TRIS, pH 8.0 and 0.05 mg/ml BSA. The peptide purity was >90% as checked by analytical high-pressure liquid chromatography and mass spectrometry.
The demethylase activity was estimated under aerobic conditions and at RT by measuring the release of H2O2 produced during the catalytic process by the Amplex® UltraRed detection system coupled with peroxidase assay. […] The conversion of the Amplex® Ultra Red reagent to resorufin was monitored in continuous by fluorescence (excitation at 540 nm, emission at 590 nm) using a microplate reader (Infinite 200, Tecan). […] The maximum demethylase activity of KDM1A/CoRest was obtained in the absence of inhibitors and corrected for background fluorescence in the absence of KDM1A/CoRest. The IC50 was calculated using GraphPad Software.

N[C@@H]1C[C@H]1c1ccc(NC(=O)c2cccc(N3CCOC3=O)c2)cc1 [Example 11, N-[4-[(1S,2R)-2-aminocyclopropyl]phenyl]-3-(2-oxooxazolidin-3-yl)benzamide Hydrochloride]
Target modulation CD14 mRNA expression (fold increase versus vehicle) (CD14 mRNA in THP-1 cells [1]; hydrochloride): 15.1 fold increase versus vehicle
Colony formation % of Inhibition (human THP-1 cells; Hydrochloride, 0.5 µM): 36.3%
Colony formation Target Modulation CD14 mRNA expression (Fold increase) (CD14 mRNA in THP-1 cells [2]; hydrochloride): 27.7 Fold increase
IC50 [3]: ≤ 5 µM
IC50 (MAO-A)/ IC50 (LSD1) (Human recombinant MAO A; hydrochloride): 5.93

N[C@@H]1C[C@H]1c1ccc(NC(=O)c2ccccc2)cc1 (relative stereo) [Example 5b, N-[4-[trans-2-aminocyclopropyl]phenyl]benzamide, reference compound]
IC50 ([3]; Homo sapiens): 50 to 100 µM
IC50 (MAO-A)/ IC50 (LSD1) (Human recombinant MAO A): 1.56

N[C@@H]1C[C@H]1c1ccc(NC(=O)c2ccc(N3CCOCC3)c(NC(=O)OCc3ccccc3)c2)cc1 (relative stereo) [Example 9, Benzyl N-[5-[[4-[trans-2-aminocyclopropyl]phenyl]carbamoyl]-2-morpholino-phenyl]carbamate hydrochloride]
IC50 ([3]; Homo sapiens): ≤ 5 µM
IC50 (MAO-A)/ IC50 (LSD1) (Human recombinant MAO A): 3.17

N[C@@H]1C[C@H]1c1ccc(NC(=O)c2cccc(N3CCOC3=O)c2)cc1 (relative stereo) [Example 3, N-[4-[trans-2-aminocyclopropyl]phenyl]-3-(2-oxooxazolidin-3-yl)benzamide hydrochloride]
Target modulation CD14 mRNA expression (fold increase versus vehicle) (CD14 mRNA in THP-1 cells [1]; hydrochloride): 21.2 fold increase versus vehicle
inhibition at 0.5 µM (human THP-1 cells): 41%
Colony formation Target Modulation CD14 mRNA expression (Fold increase) (CD14 mRNA in THP-1 cells [2]; hydrochloride): 24.8 Fold increase
IC50 ([3]; Homo sapiens): ≤ 5 µM
IC50 (MAO-A)/ IC50 (LSD1) (Human recombinant MAO A; hydrochloride): 3.30

N[C@H]1C[C@@H]1c1ccc(NC(=O)c2cccc(N3CCOC3=O)c2)cc1 [Example 13, N-[4-[(1R,2S)-2-aminocyclopropyl]phenyl]-3-(2-oxooxazolidin-3-yl)benzamide Hydrochloride]
Target modulation CD14 mRNA expression (fold increase versus vehicle) (CD14 mRNA in THP-1 cells [1]): 3.1 fold increase versus vehicle
inhibition at 0.5 µM (human THP-1 cells): 19%
Colony formation Target Modulation CD14 mRNA expression (Fold increase) (CD14 mRNA in THP-1 cells [2]): 6 Fold increase
IC50 ([3]; Homo sapiens): ≤ 5 µM
IC50 (MAO-A)/ IC50 (LSD1) (Human recombinant MAO A): 2.67

CN1CCN(c2cc(C(=O)Nc3ccc([C@@H]4C[C@H]4N)cc3)ccc2NC(=O)OCc2ccccc2)CC1 (relative stereo) [Example 6, Benzyl N-[4-[[4-[trans-2-aminocyclopropyl]phenyl]carbamoyl]-2-(4-methylpiperazin-1-yl)phenyl]carbamate Dihydrochloride]
Target modulation CD14 mRNA expression (fold increase versus vehicle) (CD14 mRNA in THP-1 cells [1]): 13 fold increase versus vehicle
IC50 ([3]; Homo sapiens): ≤ 5 µM
IC50 (MAO-A)/ IC50 (LSD1) (Human recombinant MAO A): 15.3

N[C@@H]1C[C@H]1c1ccc(NC(=O)c2ccc(-c3ccccc3)cc2)cc1 (relative stereo) [Example 5e, N-[4-[trans-2-aminocyclopropyl]phenyl]-4-phenyl-benzamide, reference compound]
Target modulation CD14 mRNA expression (fold increase versus vehicle) (CD14 mRNA in THP-1 cells [1]): 2.2 fold increase versus vehicle
activity on KDM1A (LSD1) [4]: inactive
IC50 ([3]; Homo sapiens): ≤ 5 µM
IC50 (Human recombinant MAO A; 50 nM MAO-A, 15 min preincubation, read-out: MAO-A inhibition IC50): 0.054 µM

N[C@@H]1C[C@H]1c1ccc(NC(=O)c2ccc(N3CCOCC3)cc2)cc1 (relative stereo) [Example 4, N-[4-[trans-2-aminocyclopropyl]phenyl]-4-morpholino-benzamide Hydrochloride]
IC50 ([3]; Homo sapiens): 5 to 50 µM

N[C@@H]1C[C@H]1c1ccc(NC(=O)c2ccc(N3CCCCC3)c(NC(=O)OCc3ccccc3)c2)cc1 (relative stereo) [Example 8, Benzyl N-[5-[[4-[trans-2-aminocyclopropyl]phenyl]carbamoyl]-2-(1-piperidyl)phenyl]carbamate Hydrochloride]
IC50 ([3]; Homo sapiens): ≤ 5 µM

CN1CCN(c2ccc(C(=O)Nc3ccc([C@@H]4C[C@H]4N)cc3)cc2NC(=O)OCc2ccccc2)CC1 (relative stereo) [Example 7, Benzyl N-[5-[[4-[(trans-2-aminocyclopropyl]phenyl]carbamoyl]-2-(4-methylpiperazin-1-yl)phenyl]carbamate Dihydrochloride]
IC50 ([3]; Homo sapiens): ≤ 5 µM
IC50 (MAO-A)/ IC50 (LSD1) (Human recombinant MAO A): 11.2

N[C@@H]1C[C@H]1c1ccc(NC(=O)c2ccc(N3CCOC3=O)cc2)cc1 (relative stereo) [Example 5, N-[4-[trans-2-aminocyclopropyl]phenyl]-4-(2-oxooxazolidin-3-yl)benzamide Hydrochloride]
IC50 ([3]; Homo sapiens): 5 to 50 µM
